Columns and labels:
Type in all cases: cell-based
[1] = tested on: SDOV3 cells (an ovarian cancer cell line); test: Detection of ovarian cancer cells: absorption and intracellular deacylation to a fluorescent structure, fluorescence microscopy; settings: folate-free medium (no FBS), washed with HBSS, 20× immersion objective
Experimental: Compound 24 and comparative compound A were evaluated for their ability to be absorbed by cancer cells and then, in the case of compound 24, deacylated by intracellular esterases so as to regenerate a fluorescent structure. Specifically, approximately 500,000 SDOV3 cells (an ovarian cancer cell line) were seeded into separate 35 mm culture dishes containing a folate-free growth medium (RPMI+10% FBS). The next day, the medium was replaced with a folate-free medium (no FBS). In one culture dish, the medium was supplemented with 25 micromolar of compound 24; and, in another culture dish, the medium was supplemented with 50 micromolar of comparative compound A. After incubation, the cells were washed with HBSS (Hank's balanced salt solution) to remove unbound compound. The cells were then imaged with a 20× immersion objective on a standard upright fluorescent microscope. […] FIG. 1 illustrates a picture showing the fluorescence generated. Note that only the cancer cells evidenced fluorescence and that the solution remained non-fluorescent. […] This evidences that that composition was not suitable for use in the methods described herein.

[2] = tested on: SKOV3 cells; test: Dose response of fluorescence generated in SKOV3 cells; settings: 1 hour; for Mean intensity: SKOV3 cells, RPMI + 0.25% BSA, image J
Experimental: This experiment establishes that compound 24 provides a dose response relative to the fluorescence generated. Specifically, SKOV3 cells were incubated with 10 μM, 25 μM, or 50 μM of compound 24 in RPMI supplemented with 0.25% BSA. Cells were incubated for 1 hour then washed with HBSS and imaged as before.
All images were analyzed using exactly the same parameters using the image J software suite. Mean intensity was measured from identical regions with in each image. […] While BSA was used as a supplement, acylated BSA may be more practical.

[3] = target: T1, folate binding protein (folate receptor) on SKOV3 cells (Homo sapiens, UniProt P15328); test: Folate competition: labeling of ovarian cancer cells via the folic acid receptor; settings: 10 μM compound alone vs 10 μM + 1 mM folate (100×)
T1 construct: endogenous in cells; host or cells: SKOV3 cells
T1 sequence (P15328 25-234): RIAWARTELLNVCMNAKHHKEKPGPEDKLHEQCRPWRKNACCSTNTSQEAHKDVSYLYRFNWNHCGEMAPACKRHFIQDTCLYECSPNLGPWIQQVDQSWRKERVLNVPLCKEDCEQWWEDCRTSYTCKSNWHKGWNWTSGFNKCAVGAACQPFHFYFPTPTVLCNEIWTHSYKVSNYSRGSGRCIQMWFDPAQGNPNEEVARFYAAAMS
Experimental: This example establishes that compound 24 is specific for the folate receptor. Specifically, compound 24 was used in a folate free medium and in a medium using excess folate that competed with compound 24. The rationale is that in the presence of excess folate, compound 24 would have to compete for binding to the folate binding protein and therefore there would be less signal than when compound 24 was the sole source of folate.
To test this hypothesis, SKOV3 cells were incubated with 10 μM of compound 24 or with 10 μM of compound 24+1 mM folate (100×s). Cells were then washed and imaged as before.
All images were analyzed using exactly the same parameters. Mean intensity was measured from identical regions with in each image. […] These images establish that compound 24 binds to cells through the folate binding protein and not by some other route.

[4] = tested on: MCF7 cells, a breast cancer cell line that expresses folate binding protein; test: Labeling of MCF7 cells (correlation between folic acid receptors and fluorescence intensity); settings: MCF cells, 10 uM, one hour, folate-free RPMI, no FBS
Experimental: In this experiment, the procedures set forth above were repeated with the exception that SKOV3 cells were replaced with MCF7 cells—a breast cancer cell line that expresses folate binding protein albeit at a level lower than that of the SKOV3 cells. […] However, the fluorescent intensity generated by the MCF7 cells was less than that generated by SKOV3 cells.
Specifically, MCF cells were labeled at 10 uM with compound 24 for one hour in folate-free RPMI, no FBS. Cells were washed and imaged.

Nc1nc2ncc(CNc3ccc(C(=O)NC(CCC(=O)NCCCCCNC(=O)c4cccc(-c5c6ccc(=O)cc-6oc6cc(O)ccc56)c4C(=O)O)C(=O)O)cc3)nc2c(=O)[nH]1 (centres unmarked) [comparative compound A, reference compound]
fluorescent signal of cancer cells after incubation ([1]; 50 micromolar): showed a burst of fluorescence but immediately the fluorescence was bleached

O,O′-(5-(3-(4-((4-(4-(((2-amino-4-oxo-3,4-dihydropteridin-6-yl)methyl)amino)benzamido)-5-methoxy-5-oxopentanamido)methyl)phenyl)thioureido)-3-oxo-3H-spiro[isobenzofuran-1,9′-xanthene]-3′,6′-diyl) bis)(2-methoxyethyl) Disuccinate [compound 24]
Mean intensity ([2]; 10 μM): 312.8 | Mean intensity ([2]; 25 μM): 360.4 | Mean intensity ([2]; 50 μM): 545.5 | dose response in labeling cells ([2]; SKOV3 cells, 10, 25, 50 μM): clear dose response | competition by excess folate for labeling ovarian cancer cells [3]: folate competes with compound 24 | labeling of cells (fluorescence) [4]: labeling is faint | fluorescent signal of cancer cells after incubation ([1]; 25 micromolar): clear, consistent and unambiguous
